{
  "source": "paper PMC7849011",
  "about": "“Defining the Antimalarial Activity of Cipargamin in Healthy Volunteers Experimentally Infected with Blood-Stage Plasmodium falciparum” (Antimicrobial Agents and Chemotherapy, 2021)",
  "key": {"[1]": {"tested_on": "P. falciparum", "conditions": "IBSM, cited from earlier work"}, "[2]": {"tested_on": "P. falciparum 3D7", "test": "Induced blood-stage malaria (IBSM) volunteer infection study: parasitemia by 18S rRNA qPCR", "type": "in vivo, Plasmodium falciparum", "excerpt": "A single cohort of eight subjects was inoculated intravenously with P. falciparum 3D7-infected human erythrocytes (approximately 1,800 viable parasites) as previously described ([24]). Parasite growth was monitored by collecting blood samples and performing quantitative PCR (qPCR) targeting the gene encoding P. falciparum 18S rRNA ([25]). […] The dose of cipargamin selected was predicted to be subtherapeutic based on preclinical modeling ([7]) and pharmacokinetic data obtained in previous clinical studies ([8]) and thus chosen to facilitate modeling to estimate the pharmacokinetic/pharmacodynamic relationship. To monitor total parasitemia, blood samples were collected for 18S rRNA qPCR before inoculation, on day 3, twice daily on days 4 to 6, pretreatment on day 7, and 4, 8, 12, 16, 24, 30, and 36 h posttreatment, twice daily from day 9 to day 11, and every 1 to 3 days until day 35. Blood samples for gametocytemia measurements were collected on day 11, every 1 to 3 days between day 15 and day 29, and on day 35. […] Analyses were performed in R version 3.3.0. The PRR and parasite clearance half-life were estimated using the slope of the optimal fit for the log-linear relationship of the parasitemia decay as described previously ([27])."}},
  "note": "Where two headings read alike, the source gives them in different places.",
  "data": [
    {"smiles": "OC(c1cc(C(F)(F)F)nc2c(C(F)(F)F)cccc12)C1CCCCN1", "note": "(centres unmarked) [mefloquine]", "values": [
      {"measurement": "parasite clearance half-life", "setting": "[1]; 10 mg/kg single dose", "value": 6.2, "unit": "h"}
    ]},
    {"smiles": "Clc1ccc2c(N3CCN(CCCN4CCN(c5ccnc6cc(Cl)ccc56)CC4)CC3)ccnc2c1", "note": "[piperaquine, reference compound]", "values": [
      {"measurement": "parasite clearance half-life", "setting": "[1]; 640 mg single dose", "value": 5.22, "unit": "h"},
      {"measurement": "clearance of asexual parasite regrowth", "setting": "[2]; 960 mg single oral dose after regrowth post-cipargamin", "value": "successful in clearing asexual parasite regrowth"},
      {"measurement": "second parasite regrowth, number of subjects", "setting": "[2]; after 960 mg piperaquine, 8 subjects", "value": 3, "unit": "subjects"}
    ]},
    {"smiles": "Cc1cc(Nc2ccc(S(F)(F)(F)(F)F)cc2)n2nc(C(C)(F)F)nc2n1", "note": "[DSM265]", "values": [
      {"measurement": "parasite clearance half-life", "setting": "[1]; 150 mg single dose", "value": 9.4, "unit": "h"}
    ]}
  ]
}
